In patent US8568754B2, “Low-emission formaldehyde donor preparations and use thereof” (Air Liquide Sante (International), priority 2002, dated 2013):

Conditions: not told

efflux time from a DIN beaker 4 mm: 22 s
efflux time from the DIN beaker 6 mm: 6 s
SMILES: CC1CN(CN2COC(C)C2)CO1 (centres unmarked) [No. 1, N,N′-methylenebis(5-methyloxazolidine)]
